The values below come from patent US20230049231A1 (priority 2019, published 2023).

As usually defined, the IC50 is the concentration at which inhibition is half-maximal. The low end stands for greater potency in that assay, the high end for weaker potency in that assay.

One assay deals with T1, Kv1.3 potassium channel (Homo sapiens, UniProt P22001).
T1 construct: expressed in transfected cells
Kind of assay: Kv1.3 potassium channel blocker activity, automated whole-cell patch clamp (Patchliner). It counts as cell-based. The essentials: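 IC50 came from Hill-equation fits of peak and AUC currents from the final pulse at each concentration, normalized to compound-free control. Compounds applied consecutively at 30 nM to 100 μM (up to 0.3% DMSO) to Kv1.3-expressing CHO-K1 cells, P/4 leak subtraction. Pulses were +40 mV, 100 ms, from −90 mV holding, at 0.1 Hz on Patchliner.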

The target in a further assay is T2, hERG channel (Homo sapiens, UniProt Q12809).
T2 construct: expressed in transfected cells
Kind of assay: hERG electrophysiology, automated whole-cell patch clamp (Patchliner). It counts as cell-based. The essentials: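 Automated whole-cell patch clamp on CHO-K1 cells stably expressing hERG; 30 nM–100 μM applied cumulatively to the same cell, ≤0.3% DMSO. Pulses: −80 mV holding, +20 mV for 300 ms, −50 mV for 300 ms tail, 0.3 Hz, 70 per concentration. Last-pulse AUC and peak, normalized to control, were fitted to a Hill equation for IC50.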
In general terms: Block of hERG is tested as a sign of cardiac risk.

Where [1] appears, read: Kv1.3 potassium channel, whole-cell patch clamp.
The mark [2] stands for this setting: hERG channel, whole-cell patch clamp.
The mark [3] stands for this setting: CHO-K1 cells stably expressing Kv1.3, 100 ms pulses from -90 mV to +40 mV, 0.1 Hz.
Where [4] appears, read: CHO-K1 cells stably expressing hERG, +20 mV 300 ms, -50 mV 300 ms tail current, 0.3 Hz.

T2 sequence (Q12809 whole entry): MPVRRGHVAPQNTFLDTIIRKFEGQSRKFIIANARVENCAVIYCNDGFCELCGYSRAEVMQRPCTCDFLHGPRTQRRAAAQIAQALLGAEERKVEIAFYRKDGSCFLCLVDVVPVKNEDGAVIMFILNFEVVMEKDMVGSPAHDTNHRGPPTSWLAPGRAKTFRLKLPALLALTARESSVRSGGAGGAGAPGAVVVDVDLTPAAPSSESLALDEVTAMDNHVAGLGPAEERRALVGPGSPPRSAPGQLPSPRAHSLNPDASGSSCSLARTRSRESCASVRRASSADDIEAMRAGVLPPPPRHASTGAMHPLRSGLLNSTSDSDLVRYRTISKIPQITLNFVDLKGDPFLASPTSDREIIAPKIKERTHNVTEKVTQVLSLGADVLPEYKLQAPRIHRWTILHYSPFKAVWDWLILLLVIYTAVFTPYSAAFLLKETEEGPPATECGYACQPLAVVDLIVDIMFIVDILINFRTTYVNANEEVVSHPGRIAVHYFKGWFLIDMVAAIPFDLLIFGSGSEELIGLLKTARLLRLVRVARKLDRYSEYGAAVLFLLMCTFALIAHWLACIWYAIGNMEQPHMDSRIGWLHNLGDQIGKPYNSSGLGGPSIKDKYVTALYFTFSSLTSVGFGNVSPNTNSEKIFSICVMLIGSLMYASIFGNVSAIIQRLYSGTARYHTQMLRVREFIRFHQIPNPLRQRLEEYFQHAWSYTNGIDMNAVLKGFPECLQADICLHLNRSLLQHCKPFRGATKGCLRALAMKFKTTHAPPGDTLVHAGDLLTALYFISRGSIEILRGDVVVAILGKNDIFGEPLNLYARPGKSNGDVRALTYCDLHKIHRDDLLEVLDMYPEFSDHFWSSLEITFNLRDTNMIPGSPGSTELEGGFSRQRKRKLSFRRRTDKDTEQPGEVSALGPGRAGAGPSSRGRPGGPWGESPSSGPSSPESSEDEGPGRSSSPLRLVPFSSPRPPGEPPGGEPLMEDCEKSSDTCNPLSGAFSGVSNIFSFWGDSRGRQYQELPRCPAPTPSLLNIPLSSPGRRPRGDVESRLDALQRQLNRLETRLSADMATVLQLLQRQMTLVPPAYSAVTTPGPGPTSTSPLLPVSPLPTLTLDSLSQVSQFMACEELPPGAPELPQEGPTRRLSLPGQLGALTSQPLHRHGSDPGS
T1 sequence (P22001 whole entry): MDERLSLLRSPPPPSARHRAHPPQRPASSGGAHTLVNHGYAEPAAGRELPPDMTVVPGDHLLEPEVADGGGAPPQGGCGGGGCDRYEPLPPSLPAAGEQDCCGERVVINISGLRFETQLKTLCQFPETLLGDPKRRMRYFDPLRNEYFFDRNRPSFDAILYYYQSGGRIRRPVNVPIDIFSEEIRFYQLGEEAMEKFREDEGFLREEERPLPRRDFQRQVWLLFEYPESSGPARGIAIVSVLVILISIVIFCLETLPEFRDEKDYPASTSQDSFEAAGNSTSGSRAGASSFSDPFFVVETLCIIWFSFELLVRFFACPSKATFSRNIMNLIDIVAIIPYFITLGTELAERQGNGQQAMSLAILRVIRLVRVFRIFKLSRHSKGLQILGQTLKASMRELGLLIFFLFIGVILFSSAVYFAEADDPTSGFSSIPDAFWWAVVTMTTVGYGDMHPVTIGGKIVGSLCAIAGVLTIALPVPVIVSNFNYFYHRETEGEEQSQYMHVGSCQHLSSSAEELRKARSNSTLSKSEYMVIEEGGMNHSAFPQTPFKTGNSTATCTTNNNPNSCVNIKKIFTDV

In the case of `COC[C@H](O)CN1CC(=O)N2C[C@@H](c3c(O)ccc(Cl)c3Cl)C[C@H]2C1` (single isomer, unassigned; isomer 2) [Compound 153], the IC50 against Kv1.3 potassium channel (setting [1]) is less than 1 µM; against hERG channel (setting [2]), less than 30 µM.
On to `C[C@H](CO)C(=O)N1CC(=O)N2CC[C@@H](c3c(O)ccc(Cl)c3Cl)C[C@H]2C1` [Compound 54, (8R,9aS)-8-(2,3-dichloro-6-hydroxyphenyl)-2-((R)-3-hydroxy-2-methylpropanoyl)octahydro-4H-pyrido[1,2-a]pyrazin-4-one], for which the IC50 was less than 1 µM against Kv1.3 potassium channel (setting [3]) and greater than 30 µM on hERG channel (setting [4]).
Turning to `C[C@@H](C1CNC1)N1CC(=O)N2C[C@@H](c3c(O)ccc(Cl)c3Cl)C[C@H]2C1` (single isomer, unassigned) [Compound 137], the figures for the 50% inhibitory concentration (IC50) against Kv1.3 potassium channel (setting [1]) and against hERG channel (setting [2]) were less than 1 µM and greater than 30 µM, respectively.
For the compound `O=C1[C@@H](CO)NC[C@@H]2C[C@H](c3c(O)ccc(Cl)c3Cl)CCN12` (relative stereo) [Compound 28, (8R,9aS)-rel-8-(2,3-dichloro-6-hydroxyphenyl)-3-((3R)-hydroxymethyl-octahydropyrido[1,2-a]pyrazin-4-one trifluoroacetic acid], the results for the IC50 against Kv1.3 potassium channel (setting [3]) and on hERG channel (setting [4]) were less than 1 µM and greater than 30 µM, respectively.
With `O=C1C[C@H](O)C[C@@H]2C[C@H](c3c(O)ccc(Cl)c3Cl)CN12` (single isomer, unassigned; isomer 2) [Compound 62], the concentration for half-maximal inhibition (IC50) is less than 1 µM on Kv1.3 potassium channel (setting [3]) and greater than 30 µM against hERG channel (setting [4]).
`O=C(C[C@H](O)C(F)F)N1CC(=O)N2C[C@@H](c3c(O)ccc(Cl)c3Cl)C[C@H]2C1` [Compound 75, (7R,8aS)-7-(2,3-dichloro-6-hydroxyphenyl)-2-[(3S)-4,4-difluoro-3-hydroxybutanoyl] hexahydropyrrolo [1,2-a]pyrazin-4-one]: the IC50 against Kv1.3 potassium channel (setting [1]) was less than 1 µM; against hERG channel (setting [2]) it was greater than 30 µM.
Consider `O=C1CNC[C@@H]2C[C@H](c3c(O)ccc(Cl)c3Cl)CCN12` [Compound 15], for which the IC50 is less than 1 µM against Kv1.3 potassium channel (setting [3]) and less than 30 µM against hERG channel (setting [4]).
Turning to `O=C1C[C@H](CN2CC(O)C2)C[C@@H]2C[C@H](c3c(O)ccc(Cl)c3Cl)CN12` (single isomer, unassigned) [Compound 243], the IC50 against Kv1.3 potassium channel (setting [1]) was less than 1 µM; against hERG channel (setting [2]), less than 30 µM.
Turning to `N[C@H]1CC(=O)N2C[C@@H](c3c(O)ccc(Cl)c3Cl)C[C@H]2C1` (single isomer, unassigned) [Compound 189], the results for the half-maximal inhibitory concentration (IC50) on Kv1.3 potassium channel (setting [1]) and at hERG channel (setting [2]) were less than 1 µM and greater than 30 µM, respectively.
On the same counts, the results for `O=C1CN([C@H]2C[C@H](O)C2)C[C@@H]2C[C@H](c3c(O)ccc(Cl)c3Cl)CN12` (relative stereo) [Compound 125, (7R,8aS)-7-(2,3-dichloro-6-hydroxyphenyl)-2-[(1r,3S)-rel-3-hydroxycyclobutyl] hexahydropyrrolo [1,2-a]pyrazin-4-one] are less than 1 µM and greater than 30 µM.
In the case of `O=C1CN(C[C@@H]2CCN2)C[C@@H]2C[C@H](c3c(O)ccc(Cl)c3Cl)CN12` (single isomer, unassigned; isomer 1) [Compound 139], the IC50 is less than 1 µM on Kv1.3 potassium channel (setting [1]) and greater than 30 µM against hERG channel (setting [2]).
`O=C(CO)NC[C@@H]1OC(=O)N2C[C@@H](c3c(O)ccc(Cl)c3Cl)C[C@@H]12` (single isomer, unassigned) [Compound 274]: the concentration for half-maximal inhibition (IC50) against Kv1.3 potassium channel (setting [1]) was less than 1 µM; at hERG channel (setting [2]), greater than 30 µM.
Turning to `O=C(CO)N1CCC(=O)N2C[C@@H](c3c(O)ccc(Cl)c3Cl)C[C@H]2C1` [Compound 18, (8R,9aS)-8-(2,3-dichloro-6-hydroxyphenyl)-2-(2-hydroxyacetyl)-hexahydro-1H-pyrrolo[1,2-a][1,4]diazepin-5-one], the IC50 at Kv1.3 potassium channel (setting [3]) was less than 1 µM; on hERG channel (setting [4]), greater than 30 µM.
In the case of `CNCC1OC[C@@H]2C[C@H](c3c(O)ccc(Cl)c3Cl)CCN2C1=O` (stereo partly drawn) [Compound 182, (8R,9aS)-8-(2,3-dichloro-6-hydroxyphenyl)-3-[(methylamino)methyl]-hexahydro-1H-pyrido[2,1-c][1,4]oxazin-4-one], the results for the IC50 against Kv1.3 potassium channel (setting [1]) and on hERG channel (setting [2]) were less than 1 µM and less than 30 µM, respectively.
For `NC[C@H]1OC(=O)N2C[C@@H](c3c(O)ccc(Cl)c3Cl)C[C@@H]12` (single isomer, unassigned) [Compound 273], in that order: less than 1 µM and greater than 30 µM.
On the same counts, the results for `O=C1CN([C@@H]2CC[C@H]2O)C[C@@H]2C[C@H](c3c(O)ccc(Cl)c3Cl)CN12` (relative stereo) [Compound 159, (7R,8aS)-7-(2,3-dichloro-6-hydroxyphenyl)-2-[(1S,2S)-rel-2-hydroxycyclobutyl]-hexahydropyrrolo[1,2-a]pyrazin-4-one] are less than 1 µM and greater than 30 µM.
On to `O=C1C[C@H](c2cn[nH]c2)C[C@@H]2C[C@H](c3c(O)ccc(Cl)c3Cl)CN12` (single isomer, unassigned) [Compound 216], for which the IC50 against Kv1.3 potassium channel (setting [1]) is less than 1 µM; against hERG channel (setting [2]), less than 10 µM.
On the same counts, the results for `O=C1O[C@H](CN2CC(O)C2)[C@@H]2C[C@H](c3c(O)ccc(Cl)c3Cl)CN12` (single isomer, unassigned) [Compound 283] are less than 1 µM and greater than 30 µM.
On to `O=C(CC(O)C(F)F)N1CC(=O)N2C[C@@H](c3c(O)ccc(Cl)c3Cl)C[C@H]2C1` (stereo partly drawn) [Compound 73, (7R,8aS)-7-(2,3-dichloro-6-hydroxyphenyl)-2-(4,4-difluoro-3-hydroxybutanoyl)-hexahydropyrrolo [1,2-a]pyrazin-4-one], for which the results for the IC50 at Kv1.3 potassium channel (setting [1]) and on hERG channel (setting [2]) were less than 1 µM and greater than 30 µM, respectively.
As for `O=C1CC(O)(CO)C[C@@H]2C[C@H](c3c(O)ccc(Cl)c3Cl)CN12` (stereo partly drawn) [Compound 220, (2R,8aS)-2-(2,3-dichloro-6-hydroxyphenyl)-7-hydroxy-7-(hydroxymethyl)-hexahydroindolizin-5-one], the IC50 was less than 1 µM against Kv1.3 potassium channel (setting [1]) and greater than 30 µM against hERG channel (setting [2]).
With `O=C1C[C@@H](N2CC(O)C2)C[C@@H]2C[C@H](c3c(O)ccc(Cl)c3Cl)CN12` (single isomer, unassigned) [Compound 196], the IC50 on Kv1.3 potassium channel (setting [1]) is less than 1 µM; at hERG channel (setting [2]), greater than 30 µM.
On to `NC[C@@]1(O)CC(=O)N2C[C@@H](c3c(O)ccc(Cl)c3Cl)C[C@H]2C1` (single isomer, unassigned) [Compound 218], for which the results for the IC50 at Kv1.3 potassium channel (setting [1]) and against hERG channel (setting [2]) were less than 1 µM and greater than 30 µM, respectively.
Turning to `O=C1C[C@H](N2CC(=O)N3C[C@@H](c4c(O)ccc(Cl)c4Cl)C[C@H]3C2)CN1` (single isomer, unassigned; isomer 2) [Compound 161], the 50% inhibitory concentration (IC50) against Kv1.3 potassium channel (setting [1]) is less than 1 µM; against hERG channel (setting [2]), greater than 30 µM.
For the compound `CC(=O)NC1CC(=O)N2C[C@@H](c3c(O)ccc(Cl)c3Cl)C[C@H]2C1` (stereo partly drawn) [Compound 206, N-[(2R,8aS)-2-(2,3-dichloro-6-hydroxyphenyl)-5-oxo-hexahydro-1H-indolizin-7-yl]acetamide], the IC50 is less than 1 µM against Kv1.3 potassium channel (setting [1]) and greater than 30 µM against hERG channel (setting [2]).
With `O=C1CN(C[C@H](O)CO)C[C@@H]2C[C@H](c3c(O)ccc(Cl)c3Cl)CN12` (single isomer, unassigned; isomer 2) [Compound 115], the results for the concentration for half-maximal inhibition (IC50) on Kv1.3 potassium channel (setting [1]) and at hERG channel (setting [2]) were less than 1 µM and greater than 30 µM, respectively.
For the compound `O=C1CN(C(=O)C2(CO)CC2)C[C@@H]2C[C@H](c3c(O)ccc(Cl)c3Cl)CN12` [Compound 67, (7R,8aS)-7-(2,3-dichloro-6-hydroxyphenyl)-2-[1-(hydroxymethyl)cyclopro-panecarbonyl]-hexahydropyrrolo[1,2-a]pyrazin-4-one], the results for the IC50 against Kv1.3 potassium channel (setting [1]) and against hERG channel (setting [2]) were less than 1 µM and greater than 30 µM, respectively.
In the case of `O=C1C[C@@H](NCCO)C[C@@H]2C[C@H](c3c(O)ccc(Cl)c3Cl)CN12` (single isomer, unassigned) [Compound 202], the IC50 at Kv1.3 potassium channel (setting [1]) is less than 1 µM; on hERG channel (setting [2]), greater than 30 µM.
For `O=C1CN([C@H]2CC[C@@H]2O)C[C@@H]2C[C@H](c3c(O)ccc(Cl)c3Cl)CN12` (relative stereo) [Compound 158, (7R,8aS)-7-(2,3-dichloro-6-hydroxyphenyl)-2-[(1R,2R)-rel-2-hydroxycyclobutyl]-hexahydropyrrolo[1,2-a]pyrazin-4-one], the results for the IC50 at Kv1.3 potassium channel (setting [1]) and at hERG channel (setting [2]) were less than 1 µM and greater than 30 µM, respectively.
In the case of `O=C1OC[C@H](O)[C@@H]2C[C@H](c3c(O)ccc(Cl)c3Cl)CN12` (single isomer, unassigned) [Compound 267], the half-maximal inhibitory concentration (IC50) is less than 1 µM against Kv1.3 potassium channel (setting [1]) and greater than 30 µM at hERG channel (setting [2]).
As for `O=C(N1CC(O)C1)N1CC(=O)N2C[C@@H](c3c(O)ccc(Cl)c3Cl)C[C@H]2C1` [Compound 47, (7R,8aS)-7-(2,3-dichloro-6-hydroxypheny1)-2-(3-hydroxyazetidine-1-carbonyl)-hexahydropyrrolo[1,2-a]pyrazin-4-one], the concentration for half-maximal inhibition (IC50) is less than 1 µM against Kv1.3 potassium channel (setting [3]) and greater than 30 µM against hERG channel (setting [4]).
Regarding `O=C(CO)N1CC(=O)N2CC[C@@H](c3c(O)cc(Cl)c(Cl)c3Cl)C[C@H]2C1` [Compound 38, (8R,9aS)-2-(2-hydroxyacetyl)-8-(2,3,4-trichloro-6-hydroxyphenyl)octahydro-4H-pyrido[1,2-a]pyrazin-4-one], the IC50 against Kv1.3 potassium channel (setting [3]) is less than 1 µM; against hERG channel (setting [4]), greater than 30 µM.
For the compound `O=C(C[C@@H](O)CO)N1CC(=O)N2C[C@@H](c3c(O)ccc(Cl)c3Cl)C[C@H]2C1` [Compound 78, (7R,8aS)-7-(2,3-dichloro-6-hydroxyphenyl)-2-[(3R)-3,4-dihydroxybutanoyl]-hexahydropyrrolo [1,2-a]pyrazin-4-one], the IC50 against Kv1.3 potassium channel (setting [1]) is less than 1 µM; at hERG channel (setting [2]), greater than 30 µM.
